Patent USRE48711E1, “Apoptosis signal-regulating kinase inhibitors” (Gilead Sciences, Inc., priority 2009, dated 2021)

Biological target: ASK1 (Apoptosis Signal-Regulating Kinase 1) (Homo sapiens (Human), UniProt Q99683)
Assay: ASK1 (Apoptosis Signal-Regulating Kinase 1) TR-FRET Kinase Assay (Biochemical IC50)
Settings: not given

Sequence of ASK1 (Apoptosis Signal-Regulating Kinase 1) (Q99683 649-946): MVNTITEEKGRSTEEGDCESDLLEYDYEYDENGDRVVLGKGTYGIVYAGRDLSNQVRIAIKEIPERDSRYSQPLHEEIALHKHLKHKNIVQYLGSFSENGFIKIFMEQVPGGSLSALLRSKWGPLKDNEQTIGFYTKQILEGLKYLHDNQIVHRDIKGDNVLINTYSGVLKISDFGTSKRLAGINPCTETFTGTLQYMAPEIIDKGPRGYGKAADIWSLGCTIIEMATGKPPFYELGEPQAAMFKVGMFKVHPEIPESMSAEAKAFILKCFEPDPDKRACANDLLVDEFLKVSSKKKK

| IC50 [nM] | SMILES |
| --- | --- |
| 195 | C[C@@H](O)Cn1cnnc1-c1cccc(NC(=O)c2cc(-c3cccnc3)ccn2)c1 [Example 34, (R)-N-(3-(4-(2-hydroxypropyl)-4H-1,2,4-triazol-3-yl)phenyl)-3,4′-bipyridine-2′-carboxamide] |

Same assay, conditions: TR-FRET, biotin-MBP substrate, 20 min pre-incubation, ATP added as 300 μM solution

| IC50 [nM] | SMILES |
| --- | --- |
| 5590 | Cn1cnnc1-c1cccc(NC(=O)c2cncc(-c3ccccc3)c2)c1 [Example 2, N-(3-(4-methyl-4H-1,2,4-triazol-3-yl)phenyl)-5-phenylnicotinamide] |
| 279 | O=C(Nc1cccc(-c2nncn2C2CC2)c1)c1cc(-c2ccccc2)ccn1 [Example 14, N-(3-(4-cyclopropyl-4H-1,2,4-triazol-3-yl)phenyl)-4-phenylpicolinamide] |
| 11 | O=C(Nc1cccc(-c2nncn2C2CC2)c1)c1cc(-c2cccnc2)ccn1 [Example 15, N-(3-(4-cyclopropyl-4H-1,2,4-triazol-3-yl)phenyl)-3,4′-bipyridine-2′-carboxamide] |
| 39 | Cn1cncc1-c1ccnc(C(=O)Nc2cccc(-c3nncn3C)c2)c1 [Example 18, 4-(1-methyl-1H-imidazol-5-yl)-N-(3-(4-methyl-4H-1,2,4-triazol-3-yl)phenyl)picolinamide] |
| 9 | C[C@H](CO)n1cnnc1-c1cccc(NC(=O)c2cc(-c3cccnc3)ccn2)c1 [Example 19, (R)-N-(3-(4-(1-hydroxypropan-2-yl)-4H-1,2,4-triazol-3-yl)phenyl)-3,4′-bipyridine-2′-carboxamide] |
| 39 | C[C@@H](CO)n1cnnc1-c1cccc(NC(=O)c2cc(-c3cccnc3)ccn2)c1 [Example 20, (S)-N-(3-(4-(1-hydroxypropan-2-yl)-4H-1,2,4-triazol-3-yl)phenyl)-3,4′-bipyridine-2′-carboxamide] |
| 12 | COc1ccc(-c2ccnc(C(=O)Nc3cccc(-c4nncn4C4CC4)c3)c2)cn1 [Example 21, N-(3-(4-cyclopropyl-4H-1,2,4-triazol-3-yl)phenyl)-6-methoxy-3,4′-bipyridine-2′-carboxamide] |
| 167 | COC(=O)Nc1ccc(-c2ccnc(C(=O)Nc3cccc(-c4nncn4C4CC4)c3)c2)cn1 [Example 23, methyl 2′-(3-(4-cyclopropyl-4H-1,2,4-triazol-3-yl)phenylcarbamoyl)-3,4′-bipyridin-6-ylcarbamate] |
| 21 | O=C(Nc1cccc(-c2nncn2C2CC2)c1)c1cc(-c2cncnc2)ccn1 [Example 24, N-(3-(4-cyclopropyl-4H-1,2,4-triazol-3-yl)phenyl)-4-(pyrimidin-5-yl)picolinamide] |
| 13 | Nc1ncc(-c2ccnc(C(=O)Nc3cccc(-c4nncn4C4CC4)c3)c2)cn1 [Example 25, 4-(2-aminopyrimidin-5-yl)-N-(3-(4-cyclopropyl-4H-1,2,4-triazol-3-yl)phenyl)picolinamide] |
| 11 | O=C(Nc1cccc(-c2nncn2C2CC2)c1)c1cc(-n2ccnc2)ccn1 [Example 27, N-(3-(4-cyclopropyl-4H-1,2,4-triazol-3-yl)phenyl)-4-(1H-imidazol-1-yl)picolinamide] |
| 335 | Cn1cnnc1-c1cccc(NC(=O)c2cc(N3CCOCC3)ccn2)c1 [Example 30, N-(3-(4-methyl-4H-1,2,4-triazol-3-yl)phenyl)-4-morpholinopicolinamide] |
| 63 | O=C(Nc1cccc(-c2nncn2C2CC2)c1)c1cc(-c2ccc(O)nc2)ccn1 [Example 31, N-(3-(4-cyclopropyl-4H-1,2,4-triazol-3-yl)phenyl)-6-hydroxy-3,4′-bipyridine-2′-carboxamide] |
| 3480 | Cn1cnnc1-c1cccc(NC(=O)c2cc(N3CCC(N)C3)ccn2)c1 (stereo not shown) [Example 33, 4-(3-aminopyrrolidin-1-yl)-N-(3-(4-methyl-4H-1,2,4-triazol-3-yl)phenyl)picolinamide] |
| 87 | C[C@H](O)Cn1cnnc1-c1cccc(NC(=O)c2cc(-c3cccnc3)ccn2)c1 [Example 35, (S)-N-(3-(4-(2-hydroxypropyl)-4H-1,2,4-triazol-3-yl)phenyl)-3,4′-bipyridine-2′-carboxamide] |
| 8 | O=C(Nc1cccc(-c2nncn2C2CC2)c1)c1cc(-n2cnc3ccccc32)ccn1 [Example 37, 4-(1H-benzo[d]imidazol-1-yl)-N-(3-(4-cyclopropyl-4H-1,2,4-triazol-3-yl)phenyl)picolinamide] |
| 17 | O=C(Nc1cccc(-c2nncn2C2CC2)c1)c1cc(-n2cnc(-c3ccccc3)c2)ccn1 [Example 38, N-(3-(4-cyclopropyl-4H-1,2,4-triazol-3-yl)phenyl)-4-(4-phenyl-1H-imidazol-1-yl)picolinamide] |
| 63 | O=C(Nc1cccc(-c2nncn2C2CCC2)c1)c1cc(-c2cccnc2)ccn1 [Example 39, N-(3-(4-cyclobutyl-4H-1,2,4-triazol-3-yl)phenyl)-3,4′-bipyridine-2′-carboxamide] |
| 75 | O=C(Nc1cccc(-c2nncn2C2CCCC2)c1)c1cc(-c2cccnc2)ccn1 [Example 40, N-(3-(4-cyclopentyl-4H-1,2,4-triazol-3-yl)phenyl)-3,4′-bipyridine-2′-carboxamide] |
| 48 | Cc1nccn1-c1ccnc(C(=O)Nc2cccc(-c3nncn3C3CC3)c2)c1 [Example 41, N-(3-(4-cyclopropyl-4H-1,2,4-triazol-3-yl)phenyl)-4-(2-methyl-1H-imidazol-1-yl)picolinamide] |
| 9 | COc1ncc(-c2ccnc(C(=O)Nc3cccc(-c4nncn4C4CC4)c3)c2)cn1 [Example 45, N-(3-(4-cyclopropyl-4H-1,2,4-triazol-3-yl)phenyl)-4-(2-methoxypyrimidin-5-yl)picolinamide] |

Further lines, the molecule ahead of its results:

| SMILES | IC50 [nM] |
| --- | --- |
| Cn1cnnc1-c1cccc(NC(=O)c2cc(-c3ccccc3)ccn2)c1 [Example 4, N-(3-(4-methyl-4H-1,2,4-triazol-3-yl)phenyl)-4-phenylpicolinamide] | 701 |
| Cn1cnnc1-c1cccc(NC(=O)c2cncc(-c3cccnc3)c2)c1 [Example 8, N-(3-(4-methyl-4H-1,2,4-triazol-3-yl)phenyl)-3,3′-bipyridine-5-carboxamide] | 220 |
| Cn1cnnc1-c1cccc(NC(=O)c2cc(-c3cccnc3)ccn2)c1 [Example 9, N-(3-(4-methyl-4H-1,2,4-triazol-3-yl)phenyl)-3,4′-bipyridine-2′-carboxamide] | 42 |
| COc1cncc(-c2ccnc(C(=O)Nc3cccc(-c4nncn4C)c3)c2)c1 [Example 11, 5-methoxy-N-(3-(4-methyl-4H-1,2,4-triazol-3-yl)phenyl)-3,4′-bipyridine-2′-carboxamide] | 40 |
| Cn1cnnc1-c1cccc(NC(=O)c2cc(-c3cnc4ccccn34)ccn2)c1 [Example 13, 4-(imidazo[1,2-a]pyridin-3-yl)-N-(3-(4-methyl-4H-1,2,4-triazol-3-yl)phenyl)picolinamide] | 44 |
| NC(=O)CCn1cnnc1-c1cccc(NC(=O)c2cc(-c3cccnc3)ccn2)c1 [Example 16, N-(3-(4-(3-amino-3-oxopropyl)-4H-1,2,4-triazol-3-yl)phenyl)-3,4′-bipyridine-2′-carboxamide] | 114 |
| Nc1ccc(-c2ccnc(C(=O)Nc3cccc(-c4nncn4C4CC4)c3)c2)cn1 [Example 22, 6-amino-N-(3-(4-cyclopropyl-4H-1,2,4-triazol-3-yl)phenyl)-3,4′-bipyridine-2′-carboxamide] | 9 |
| O=C(Nc1cccc(-c2nncn2C2CCOCC2)c1)c1cc(-c2cccnc2)ccn1 [Example 26, N-(3-(4-(tetrahydro-2H-pyran-4-yl)-4H-1,2,4-triazol-3-yl)phenyl)-3,4′-bipyridine-2′-carboxamide] | 1970 |
| O=C(Nc1cccc(-c2nncn2C2CC2)c1)c1cc(-n2cncn2)ccn1 [Example 28, N-(3-(4-cyclopropyl-4H-1,2,4-triazol-3-yl)phenyl)-4-(1H-1,2,4-triazol-1-yl)picolinamide] | 110 |
| CN1CCN(c2ccnc(C(=O)Nc3cccc(-c4nncn4C)c3)c2)CC1 [Example 29, N-(3-(4-methyl-4H-1,2,4-triazol-3-yl)phenyl)-4-(4-methylpiperazin-1-yl)picolinamide] | 443 |
| Cn1cnnc1-c1cccc(NC(=O)c2cc(N3CCNC(=O)C3)ccn2)c1 [Example 32, N-(3-(4-methyl-4H-1,2,4-triazol-3-yl)phenyl)-4-(3-oxopiperazin-1-yl)picolinamide] | 569 |
| Cn1cncc1-c1ccnc(C(=O)Nc2cccc(-c3nncn3C3CC3)c2)c1 [Example 36, N-(3-(4-cyclopropyl-4H-1,2,4-triazol-3-yl)phenyl)-4-(1-methyl-1H-imidazol-5-yl)picolinamide] | 18 |
| Cc1cn(-c2ccnc(C(=O)Nc3cccc(-c4nncn4C4CC4)c3)c2)cn1 [Example 42, N-(3-(4-cyclopropyl-4H-1,2,4-triazol-3-yl)phenyl)-4-(4-methyl-1H-imidazol-1-yl)picolinamide] | 11 |
| Cc1ncn(-c2ccnc(C(=O)Nc3cccc(-c4nncn4C4CC4)c3)c2)c1C [Example 43, N-(3-(4-cyclopropyl-4H-1,2,4-triazol-3-yl)phenyl)-4-(4,5-dimethyl-1H-imidazol-1-yl)picolinamide] | 8 |
| O=C(Nc1cccc(-c2nncn2C2CC2)c1)c1cc(-n2cnc(C(F)(F)F)c2)ccn1 [Example 44, N-(3-(4-cyclopropyl-4H-1,2,4-triazol-3-yl)phenyl)-4-(4-(trifluoromethyl)-1H-imidazol-1-yl)picolinamide] | 27 |
| Cc1cc(-c2cccnc2)cc(C(=O)Nc2cccc(-c3nncn3C)c2)n1 [Example 46, 6′-methyl-N-(3-(4-methyl-4H-1,2,4-triazol-3-yl)phenyl)-3,4′-bipyridine-2′-carboxamide] | 212 |
| O=C(Nc1cccc(-c2nncn2C2CC2)c1)c1cc(-c2ccc(N3CCCC3)nc2)ccn1 [Example 47, N-(3-(4-cyclopropyl-4H-1,2,4-triazol-3-yl)phenyl)-6-(pyrrolidin-1-yl)-3,4′-bipyridine-2′-carboxamide] | 32 |
| Cc1cc(-c2ccnc(C(=O)Nc3cccc(-c4nncn4C4CC4)c3)c2)cnc1F [Example 48, N-(3-(4-cyclopropyl-4H-1,2,4-triazol-3-yl)phenyl)-6-fluoro-5-methyl-3,4′-bipyridine-2′-carboxamide] | 37 |
